# According to the supplement of paper PMC10307832:
# What was measured:
# Assay in all cases: relative viability (nuclei count vs DMSO), 5 days (fraction); higher = more cells survive
# NCI-H1793 = details: first compound 0.5 µM
# Procedure, shortened: (§1)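 A single step with final 0.05% Triton X-100, 1% formaldehyde and 1 ug/ml Hoechst fixed the cells and stained nuclei 5 days after treatment. Lung cancer cell lines in 1536-well plates had been treated by pin tool the day after seeding with one drug alone or a fixed anchor-drug dose plus five library-drug doses (not always all listed) in √10 steps, and nuclei were counted on 4× images. Relative viability is the ratio of nuclei in treated wells to nuclei in vehicle wells, taken as the median of duplicate plates.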
# SK-LU-1 = system: SK-LU-1
# Procedure, shortened: as §1
# NCI-H2228 = system: NCI-H2228
# Procedure, shortened: as §1
# NCI-H1944 = system: NCI-H1944
# Procedure, shortened: as §1
# ChaGo-K-1 = system: ChaGo-K-1
# Procedure, shortened: as §1
# NCI-H2126 = system: NCI-H2126
# Procedure, shortened: as §1
# A-427 = system: A-427
# Procedure, shortened: as §1
# NCI-H2023 = system: NCI-H2023
# Procedure, shortened: as §1
# NCI-H2405 = system: NCI-H2405
# Procedure, shortened: as §1
# NCI-H838 = system: NCI-H838
# Procedure, shortened: as §1
# NCI-H1993 = system: NCI-H1993
# Procedure, shortened: as §1
# ABC-1 = system: ABC-1
# Procedure, shortened: as §1
compound,measurement,setting,value
CC1(C)CCC(c2ccc(Cl)cc2)=C(CN2CCN(c3ccc(C(=O)NS(=O)(=O)c4ccc(N[C@H](CCN5CCOCC5)CSc5ccccc5)c(S(=O)(=O)C(F)(F)F)c4)cc3)CC2)C1 [Navitoclax] + COc1cccc2cc(-c3nc([C@H]4CC[C@H](C(=O)O)CC4)n4ncnc(N)c34)[nH]c12 [OSI-027] (partner 0.5 µM),relative viability,NCI-H1793,0.261
same,relative viability,SK-LU-1; first compound 0.005 µM,0.374
same,relative viability,SK-LU-1; first compound 0.01581 µM,0.429
same,relative viability,SK-LU-1; first compound 0.05 µM,0.347
same,relative viability,SK-LU-1; first compound 0.1581 µM,0.374
same,relative viability,SK-LU-1; first compound 0.5 µM,0.319
same,relative viability,NCI-H2228; first compound 0.005 µM,0.586
same,relative viability,NCI-H2228; first compound 0.01581 µM,0.726
same,relative viability,NCI-H2228; first compound 0.1581 µM,0.53
same,relative viability,NCI-H2228; first compound 0.5 µM,0.5
same,relative viability,NCI-H1944; first compound 0.005 µM,0.401
same,relative viability,NCI-H1944; first compound 0.01581 µM,0.495
same,relative viability,NCI-H1944; first compound 0.05 µM,0.364
same,relative viability,NCI-H1944; first compound 0.1581 µM,0.376
same,relative viability,NCI-H1944; first compound 0.5 µM,0.419
same,relative viability,ChaGo-K-1; first compound 0.005 µM,0.548
same,relative viability,ChaGo-K-1; first compound 0.01581 µM,0.536
same,relative viability,ChaGo-K-1; first compound 0.05 µM,0.541
same,relative viability,ChaGo-K-1; first compound 0.1581 µM,0.55
same,relative viability,ChaGo-K-1; first compound 0.5 µM,0.6
same,relative viability,NCI-H2126; first compound 0.005 µM,0.764
same,relative viability,NCI-H2126; first compound 0.01581 µM,0.849
same,relative viability,NCI-H2126; first compound 0.1581 µM,0.72
same,relative viability,NCI-H2126; first compound 0.5 µM,0.716
same,relative viability,A-427; first compound 0.005 µM,0.485
same,relative viability,A-427; first compound 0.01581 µM,0.525
same,relative viability,A-427; first compound 0.05 µM,0.444
same,relative viability,A-427; first compound 0.1581 µM,0.477
same,relative viability,A-427; first compound 0.5 µM,0.392
same,relative viability,NCI-H2023; first compound 0.005 µM,0.405
same,relative viability,NCI-H2023; first compound 0.01581 µM,0.446
same,relative viability,NCI-H2023; first compound 0.05 µM,0.338
same,relative viability,NCI-H2023; first compound 0.1581 µM,0.38
same,relative viability,NCI-H2023; first compound 0.5 µM,0.416
same,relative viability,NCI-H2405; first compound 0.005 µM,0.664
same,relative viability,NCI-H2405; first compound 0.01581 µM,0.682
same,relative viability,NCI-H2405; first compound 0.05 µM,0.644
same,relative viability,NCI-H2405; first compound 0.1581 µM,0.632
same,relative viability,NCI-H2405; first compound 0.5 µM,0.558
same,relative viability,NCI-H838; first compound 0.005 µM,0.373
same,relative viability,NCI-H838; first compound 0.01581 µM,0.434
same,relative viability,NCI-H838; first compound 0.05 µM,0.495
same,relative viability,NCI-H838; first compound 0.1581 µM,0.349
same,relative viability,NCI-H838; first compound 0.5 µM,0.41
same,relative viability,NCI-H1993; first compound 0.005 µM,0.566
same,relative viability,NCI-H1993; first compound 0.01581 µM,0.523
same,relative viability,NCI-H1993; first compound 0.05 µM,0.551
same,relative viability,NCI-H1993; first compound 0.1581 µM,0.523
same,relative viability,NCI-H1993; first compound 0.5 µM,0.607
same,relative viability,ABC-1; first compound 0.005 µM,0.506
same,relative viability,ABC-1; first compound 0.01581 µM,0.637
same,relative viability,ABC-1; first compound 0.05 µM,0.397
same,relative viability,ABC-1; first compound 0.1581 µM,0.572
same,relative viability,ABC-1; first compound 0.5 µM,0.356
